Test results: the supplement of paper PMC10307832

Experiments:
Assay in all cases: relative viability (nuclei count vs DMSO), 5 days (fraction); higher = more cells survive
[1] = compound: CN(C)CC1=CC(=CC=C1)N=C(C2=CC=CC=C2)C3=C(NC4=C3C=CC(=C4)C(=O)N(C)C)O
In short: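 Lung cancer cell lines received five library-drug doses (not always all listed) spaced by √10, pinned on vehicle-anchored 1536-well plates after an overnight stay at 37 °C. Five days later, with no medium change, nuclei were Hoechst-stained, imaged at 4× and counted with MetaXpress. Viability is treated-well nuclei relative to vehicle-well nuclei, as a median across plates. Passing plates had control CV below 25% and at least one doubling.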

[2] = compound: CN(C)CC1=CC(=CC=C1)N=C(C2=CC=CC=C2)C3=C(NC4=C3C=CC(=C4)C(=O)N(C)C)O + CC(=O)Nc1cccc(-n2c(=O)n(C3CC3)c(=O)c3c(Nc4ccc(I)cc4F)n(C)c(=O)c(C)c32)c1 [Trametinib] (partner 0.02 µM)
In short: (§1)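 One day after seeding in 1536-well plates, lung cancer cell lines were dosed by pin tool. Dosing was either single-drug or a fixed anchor-drug dose plus five library-drug doses (not always all listed) in √10 steps. After 5 days, nuclei were stained in one fix-and-stain step and counted on 4× images, and relative viability is the nuclei count of treated wells over that of vehicle wells, given as the median of duplicate plates.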

[3] = compound: CN(C)CC1=CC(=CC=C1)N=C(C2=CC=CC=C2)C3=C(NC4=C3C=CC(=C4)C(=O)N(C)C)O + N=C(N)NC(=N)NCCc1ccccc1 [Phenformin] (partner 250 µM)
In short: as §1

[4] = compound: CN(C)CC1=CC(=CC=C1)N=C(C2=CC=CC=C2)C3=C(NC4=C3C=CC(=C4)C(=O)N(C)C)O + COc1cccc2cc(-c3nc([C@H]4CC[C@H](C(=O)O)CC4)n4ncnc(N)c34)[nH]c12 [OSI-027] (partner 0.5 µM)
In short: as §1

Cell Line: 201T
- relative viability ([1]; 0.08 µM): 0.983
- relative viability ([1]; 0.253 µM): 1.02
- relative viability ([1]; 0.8 µM): 0.997
- relative viability ([1]; 2.53 µM): 0.947
- relative viability ([1]; 8 µM): 0.901
- relative viability ([2]; first compound 0.08 µM): 0.71
- relative viability ([2]; first compound 0.253 µM): 0.693
- relative viability ([2]; first compound 0.8 µM): 0.73
- relative viability ([2]; first compound 2.53 µM): 0.716
- relative viability ([2]; first compound 8 µM): 0.657
- relative viability ([3]; first compound 0.08 µM): 0.437
- relative viability ([3]; first compound 0.253 µM): 0.449
- relative viability ([3]; first compound 0.8 µM): 0.416
- relative viability ([3]; first compound 2.53 µM): 0.428
- relative viability ([3]; first compound 8 µM): 0.41
- relative viability ([4]; first compound 0.08 µM): 0.737
- relative viability ([4]; first compound 0.253 µM): 0.736
- relative viability ([4]; first compound 0.8 µM): 0.762
- relative viability ([4]; first compound 2.53 µM): 0.586
- relative viability ([4]; first compound 8 µM): 0.584

Cell Line: A549
- relative viability ([1]; 0.08 µM): 1.01
- relative viability ([1]; 0.253 µM): 0.991
- relative viability ([1]; 0.8 µM): 1.01
- relative viability ([1]; 2.53 µM): 0.929
- relative viability ([1]; 8 µM): 0.901
- relative viability ([3]; first compound 0.08 µM): 0.202
- relative viability ([3]; first compound 0.253 µM): 0.157
- relative viability ([3]; first compound 0.8 µM): 0.124
- relative viability ([3]; first compound 2.53 µM): 0.0946
- relative viability ([3]; first compound 8 µM): 0.16

Cell Line: A-427
- relative viability ([1]; 0.08 µM): 1.02
- relative viability ([1]; 0.253 µM): 1.07
- relative viability ([1]; 0.8 µM): 0.974
- relative viability ([1]; 2.53 µM): 0.963
- relative viability ([1]; 8 µM): 0.98
- relative viability ([2]; first compound 0.08 µM): 0.752
- relative viability ([2]; first compound 0.253 µM): 0.787
- relative viability ([2]; first compound 0.8 µM): 0.776
- relative viability ([2]; first compound 2.53 µM): 0.686
- relative viability ([2]; first compound 8 µM): 0.663
- relative viability ([3]; first compound 0.08 µM): 0.378
- relative viability ([3]; first compound 0.253 µM): 0.385
- relative viability ([3]; first compound 0.8 µM): 0.308
- relative viability ([3]; first compound 2.53 µM): 0.257
- relative viability ([3]; first compound 8 µM): 0.266
- relative viability ([4]; first compound 0.08 µM): 0.472
- relative viability ([4]; first compound 0.253 µM): 0.429
- relative viability ([4]; first compound 0.8 µM): 0.497
- relative viability ([4]; first compound 2.53 µM): 0.509
- relative viability ([4]; first compound 8 µM): 0.36

Cell Line: ABC-1
- relative viability ([1]; 0.08 µM): 1.1
- relative viability ([1]; 0.253 µM): 1.05
- relative viability ([1]; 0.8 µM): 0.971
- relative viability ([1]; 2.53 µM): 0.891
- relative viability ([1]; 8 µM): 0.864
- relative viability ([3]; first compound 0.08 µM): 0.205
- relative viability ([3]; first compound 0.253 µM): 0.277
- relative viability ([3]; first compound 0.8 µM): 0.231
- relative viability ([3]; first compound 2.53 µM): 0.207
- relative viability ([3]; first compound 8 µM): 0.243
- relative viability ([4]; first compound 0.08 µM): 0.433
- relative viability ([4]; first compound 0.253 µM): 0.504
- relative viability ([4]; first compound 0.8 µM): 0.442
- relative viability ([4]; first compound 2.53 µM): 0.568
- relative viability ([4]; first compound 8 µM): 0.447

Cell Line: BEN
- relative viability ([1]; 0.08 µM): 0.904
- relative viability ([1]; 0.253 µM): 0.944
- relative viability ([1]; 0.8 µM): 0.988
- relative viability ([1]; 2.53 µM): 1
- relative viability ([1]; 8 µM): 0.909
- relative viability ([2]; first compound 0.08 µM): 1.01
- relative viability ([2]; first compound 0.253 µM): 0.799
- relative viability ([2]; first compound 0.8 µM): 1.2
- relative viability ([2]; first compound 2.53 µM): 1.01
- relative viability ([2]; first compound 8 µM): 0.941
- relative viability ([3]; first compound 0.08 µM): 0.233
- relative viability ([3]; first compound 0.253 µM): 0.274
- relative viability ([3]; first compound 0.8 µM): 0.238
- relative viability ([3]; first compound 2.53 µM): 0.223
- relative viability ([3]; first compound 8 µM): 0.267
- relative viability ([4]; first compound 0.08 µM): 0.286
- relative viability ([4]; first compound 0.253 µM): 0.31
- relative viability ([4]; first compound 0.8 µM): 0.25
- relative viability ([4]; first compound 2.53 µM): 0.306
- relative viability ([4]; first compound 8 µM): 0.289

Cell Line: CAL-12T
- relative viability ([1]; 0.08 µM): 1.07
- relative viability ([1]; 0.253 µM): 1.02
- relative viability ([1]; 0.8 µM): 1.09
- relative viability ([1]; 2.53 µM): 1.01
- relative viability ([1]; 8 µM): 1.12
- relative viability ([2]; first compound 0.08 µM): 0.389
- relative viability ([2]; first compound 0.253 µM): 0.399
- relative viability ([2]; first compound 0.8 µM): 0.338
- relative viability ([2]; first compound 2.53 µM): 0.459
- relative viability ([2]; first compound 8 µM): 0.354
- relative viability ([3]; first compound 0.08 µM): 0.55
- relative viability ([3]; first compound 0.253 µM): 0.563
- relative viability ([3]; first compound 0.8 µM): 0.529
- relative viability ([3]; first compound 2.53 µM): 0.555
- relative viability ([3]; first compound 8 µM): 0.543
- relative viability ([4]; first compound 0.08 µM): 0.736
- relative viability ([4]; first compound 0.253 µM): 0.746
- relative viability ([4]; first compound 0.8 µM): 0.686
- relative viability ([4]; first compound 2.53 µM): 0.849
- relative viability ([4]; first compound 8 µM): 0.527

Cell Line: COR-L23
- relative viability ([1]; 0.08 µM): 1.04
- relative viability ([1]; 0.253 µM): 1.02
- relative viability ([1]; 0.8 µM): 1.09
- relative viability ([1]; 2.53 µM): 0.95
- relative viability ([1]; 8 µM): 0.967
- relative viability ([2]; first compound 0.08 µM): 0.688
- relative viability ([2]; first compound 0.253 µM): 0.551
- relative viability ([2]; first compound 0.8 µM): 0.589
- relative viability ([2]; first compound 2.53 µM): 0.517
- relative viability ([2]; first compound 8 µM): 0.567
- relative viability ([3]; first compound 0.08 µM): 0.495
- relative viability ([3]; first compound 0.253 µM): 0.413
- relative viability ([3]; first compound 0.8 µM): 0.402
- relative viability ([3]; first compound 2.53 µM): 0.423
- relative viability ([3]; first compound 8 µM): 0.421
- relative viability ([4]; first compound 0.08 µM): 0.722
- relative viability ([4]; first compound 0.253 µM): 0.788
- relative viability ([4]; first compound 0.8 µM): 0.818
- relative viability ([4]; first compound 2.53 µM): 0.741
- relative viability ([4]; first compound 8 µM): 0.732

Cell Line: COR-L 105
- relative viability ([1]; 0.08 µM): 1.04
- relative viability ([1]; 0.253 µM): 1.03
- relative viability ([1]; 0.8 µM): 0.926
- relative viability ([1]; 2.53 µM): 0.928
- relative viability ([1]; 8 µM): 0.787
- relative viability ([2]; first compound 0.08 µM): 0.508
- relative viability ([2]; first compound 0.253 µM): 0.447
- relative viability ([2]; first compound 0.8 µM): 0.381
- relative viability ([2]; first compound 2.53 µM): 0.492
- relative viability ([2]; first compound 8 µM): 0.398
- relative viability ([3]; first compound 0.08 µM): 0.464
- relative viability ([3]; first compound 0.253 µM): 0.546
- relative viability ([3]; first compound 0.8 µM): 0.427
- relative viability ([3]; first compound 2.53 µM): 0.455
- relative viability ([3]; first compound 8 µM): 0.478
- relative viability ([4]; first compound 0.08 µM): 0.634
- relative viability ([4]; first compound 0.253 µM): 0.641
- relative viability ([4]; first compound 0.8 µM): 0.477
- relative viability ([4]; first compound 2.53 µM): 0.687
- relative viability ([4]; first compound 8 µM): 0.609
